{
  "source": "patent EP4635500A1",
  "about": "“THERAPEUTIC AGENT FOR BACTERIAL INFECTION” (Sumitomo Pharma Co., Ltd., priority 2022, dated 2024)",
  "type_in_all_cases": "cell-based",
  "key": {"Escherichia coli": {"system": "Escherichia coli", "assay": "MIC, broth microdilution, standard strains and Japanese clinical isolates (Example 5, Table 4)"}, "Enterobacter aerogenes": {"system": "Enterobacter aerogenes", "assay": "MIC and MBC, broth microdilution (Example 4, Table 3)", "conditions": "Klebsiella aerogenes"}, "Prevotella spp.": {"system": "Prevotella spp.", "assay": "MIC, agar dilution, anaerobic bacteria (Example 9, Tables 18, 23)", "conditions": "for MIC: (n)=Compound A µg/mL, 0=Compound A alone antibacterial"}, "Porphyromonas spp.": {"system": "Porphyromonas spp.", "assay": "MIC, agar dilution, anaerobic bacteria (Example 9, Tables 19, 24)", "conditions": "(n)=Compound A µg/mL, 0=Compound A alone antibacterial"}},
  "note": "Where two headings read alike, the source gives them in different places.",
  "data": [
    {"smiles": "C[C@@H](O)[C@H]1C(=O)N2C(C(=O)O)=C(S[C@@H]3CN[C@H](C(=O)N(C)C)C3)[C@H](C)[C@H]12", "note": "[MEPM, meropenem]", "values": [
      {"measurement": "MIC", "setting": "Escherichia coli; ATCCBAA2340, KUB3148 Escherichia coli ATCC BAA-2340, KPC-3", "value": 0.5, "unit": "µg/mL"},
      {"measurement": "MIC", "setting": "Escherichia coli; ATCCBAA2452, KUB4005 Escherichia coli ATCC BAA-2452, NDM-1", "value": 1, "unit": "µg/mL"},
      {"measurement": "MIC", "setting": "Escherichia coli; ATCCBAA2469, KUB3149 Escherichia coli ATCC BAA-2469, NDM-1", "value": 2, "unit": "µg/mL"},
      {"measurement": "MIC", "setting": "Escherichia coli; ATCCBAA2471, KUB4007 Escherichia coli ATCC BAA-2471, NDM-6", "value": 32, "unit": "µg/mL"},
      {"measurement": "MIC", "setting": "Escherichia coli; ATCCBAA2523, KUB3150 Escherichia coli ATCC BAA-2523, OXA-48", "value": 0.06, "unit": "µg/mL"},
      {"measurement": "MIC", "setting": "Escherichia coli; KUB3151 Escherichia coli NCTC13476, IMP-1", "value": 1, "unit": "µg/mL"},
      {"measurement": "MIC", "setting": "Escherichia coli; KUB3605 Escherichia coli Clinical isolate, NDM-1", "value": 32, "unit": "µg/mL"},
      {"measurement": "MBC", "setting": "Enterobacter aerogenes", "value": 8, "unit": "µg/mL"},
      {"measurement": "MIC", "setting": "Enterobacter aerogenes", "value": 4, "unit": "µg/mL"},
      {"measurement": "MIC", "setting": "Prevotella spp.; KUB No. 2989 Prevotella histicola", "value": 0.06, "unit": "µg/mL"},
      {"measurement": "MIC", "setting": "Prevotella spp.; KUB No. 2991 Prevotella intermedia", "value": 0.06, "unit": "µg/mL"},
      {"measurement": "MIC", "setting": "Prevotella spp.; KUB No. 2992 Prevotella buccae", "value": 0.12, "unit": "µg/mL"},
      {"measurement": "MIC", "setting": "Prevotella spp.; KUB No. 3005 Prevotella melaninogenica", "value": "≤ 0.03", "unit": "µg/mL"},
      {"measurement": "MIC", "setting": "Prevotella spp.; KUB No. 6558 Prevotella heparinolytica", "value": 0.06, "unit": "µg/mL"},
      {"measurement": "MIC", "setting": "Prevotella spp.; KUB No. 6559 Prevotella intermedia", "value": "≤ 0.03", "unit": "µg/mL"},
      {"measurement": "MIC", "setting": "Prevotella spp.; KUB No. 6560 Prevotella nigrescens", "value": "≤ 0.03", "unit": "µg/mL"},
      {"measurement": "MIC", "setting": "Prevotella spp.; KUB No. 6561 Prevotella melaninogenica", "value": 0.12, "unit": "µg/mL"},
      {"measurement": "MIC", "setting": "Prevotella spp.; KUB No. 6563 Prevotella nigrescens", "value": "≤ 0.03", "unit": "µg/mL"},
      {"measurement": "MIC", "setting": "Prevotella spp.; KUB No. 6564 Prevotella buccae", "value": 0.12, "unit": "µg/mL"},
      {"measurement": "MIC", "setting": "Prevotella spp.; KUB No. 6565 Prevotella nigrescens", "value": 0.06, "unit": "µg/mL"},
      {"measurement": "MIC", "setting": "Prevotella spp.; KUB No. 6567 Prevotella melaninogenica", "value": "≤ 0.03", "unit": "µg/mL"},
      {"measurement": "MIC", "setting": "Prevotella spp.; KUB No. 6568 Prevotella intermedia", "value": 0.06, "unit": "µg/mL"},
      {"measurement": "MIC", "setting": "Prevotella spp.; KUB No. 6569 Prevotella nanceiensis", "value": 0.5, "unit": "µg/mL"},
      {"measurement": "MIC", "setting": "Prevotella spp.; KUB No. 6570 Prevotella intermedia", "value": 0.06, "unit": "µg/mL"},
      {"measurement": "MIC", "setting": "Prevotella spp.; KUB No. 6571 Prevotella denticola", "value": 0.06, "unit": "µg/mL"},
      {"measurement": "MIC", "setting": "Prevotella spp.; KUB No. 6572 Prevotella melaninogenica", "value": 0.06, "unit": "µg/mL"},
      {"measurement": "MIC", "setting": "Prevotella spp.; KUB No. 6574 Prevotella oris", "value": "≤ 0.03", "unit": "µg/mL"},
      {"measurement": "MIC", "setting": "Prevotella spp.; KUB No. 6575 Prevotella nigrescens", "value": "≤ 0.03", "unit": "µg/mL"},
      {"measurement": "MIC", "setting": "Prevotella spp.; KUB No. 6576 Prevotella intermedia", "value": "≤ 0.03", "unit": "µg/mL"},
      {"measurement": "MIC", "setting": "Prevotella spp.; KUB No. 6579 Prevotella pallens", "value": 0.06, "unit": "µg/mL"},
      {"measurement": "MIC", "setting": "Prevotella spp.; KUB No. 6581 Prevotella intermedia", "value": 0.06, "unit": "µg/mL"},
      {"measurement": "MIC", "setting": "Prevotella spp.; KUB No. 6582 Prevotella melaninogenica", "value": 0.06, "unit": "µg/mL"},
      {"measurement": "MIC", "setting": "Prevotella spp.; KUB No. 6585 Prevotella baroniae", "value": 0.06, "unit": "µg/mL"},
      {"measurement": "MIC", "setting": "Prevotella spp.; KUB No. 6587 Prevotella melaninogenica", "value": 0.06, "unit": "µg/mL"},
      {"measurement": "MIC", "setting": "Prevotella spp.; KUB No. 6588 Prevotella nigrescens", "value": "≤ 0.03", "unit": "µg/mL"},
      {"measurement": "MIC", "setting": "Prevotella spp.; KUB No. 6589 Prevotella buccae", "value": 0.12, "unit": "µg/mL"},
      {"measurement": "MIC", "setting": "Prevotella spp.; KUB No. 6590 Prevotella buccae", "value": 0.32, "unit": "µg/mL"},
      {"measurement": "MIC", "setting": "Prevotella spp.; KUB No. 6591 Prevotella intermedia", "value": 0.06, "unit": "µg/mL"},
      {"measurement": "MIC", "setting": "Prevotella spp.; KUB No. 6592 Prevotella jejuni", "value": 0.06, "unit": "µg/mL"},
      {"measurement": "MIC", "setting": "Prevotella spp.; KUB No. 6600 Prevotella intermedia", "value": "≤ 0.03", "unit": "µg/mL"},
      {"measurement": "MIC", "setting": "Prevotella spp.; KUB No. 6601 Prevotella melaninogenica", "value": 0.12, "unit": "µg/mL"},
      {"measurement": "MIC", "setting": "Prevotella spp.; KUB No. 6603 Prevotella melaninogenica", "value": 0.12, "unit": "µg/mL"},
      {"measurement": "MIC", "setting": "Prevotella spp.; KUB No. 6609 Prevotella buccae", "value": 0.12, "unit": "µg/mL"},
      {"measurement": "MIC", "setting": "Prevotella spp.; KUB No. 6611 Prevotella nigrescens", "value": 0.06, "unit": "µg/mL"},
      {"measurement": "MIC", "setting": "Prevotella spp.; KUB No. 6612 Prevotella oris", "value": 0.25, "unit": "µg/mL"},
      {"measurement": "MIC", "setting": "Prevotella spp.; KUB No. 6613 Prevotella buccae", "value": 0.12, "unit": "µg/mL"},
      {"measurement": "MIC", "setting": "Prevotella spp.; KUB No. 6614 Prevotella intermedia", "value": "≤ 0.03", "unit": "µg/mL"},
      {"measurement": "MIC", "setting": "Prevotella spp.; KUB No. 6615 Prevotella buccae", "value": 0.06, "unit": "µg/mL"},
      {"measurement": "MIC", "setting": "Prevotella spp.; KUB No. 6617 Prevotella buccae", "value": 0.06, "unit": "µg/mL"},
      {"measurement": "MIC", "setting": "Prevotella spp.; KUB No. 6618 Prevotella melaninogenica", "value": 0.06, "unit": "µg/mL"},
      {"measurement": "MIC", "setting": "Prevotella spp.; KUB No. 6622 Prevotella loescheii", "value": 0.06, "unit": "µg/mL"},
      {"measurement": "MIC", "setting": "Prevotella spp.; KUB No. 6623 Prevotella nigrescens", "value": "≤ 0.03", "unit": "µg/mL"},
      {"measurement": "MIC", "setting": "Prevotella spp.; KUB No. 6625 Prevotella melaninogenica", "value": "≤ 0.03", "unit": "µg/mL"},
      {"measurement": "MIC", "setting": "Prevotella spp.; KUB No. 6626 Prevotella loescheii", "value": "≤ 0.03", "unit": "µg/mL"},
      {"measurement": "MIC", "setting": "Prevotella spp.; KUB No. 6629 Prevotella bivia", "value": 0.06, "unit": "µg/mL"},
      {"measurement": "MIC", "setting": "Prevotella spp.; KUB No. 6630 Prevotella nigrescens", "value": "≤ 0.03", "unit": "µg/mL"},
      {"measurement": "MIC", "setting": "Prevotella spp.; KUB No. 6631 Prevotella jejuni", "value": 0.06, "unit": "µg/mL"},
      {"measurement": "MIC50", "setting": "Prevotella spp.; Prevotella spp.", "value": 0.06, "unit": "µg/mL"},
      {"measurement": "MIC90", "setting": "Prevotella spp.; Prevotella spp.", "value": 0.12, "unit": "µg/mL"},
      {"measurement": "MICrange", "setting": "Prevotella spp.; Prevotella spp.", "value": "≤0.03 to 0.5", "unit": "µg/mL"},
      {"measurement": "MIC", "setting": "Prevotella spp.; Prevotella, KUB No. 6583 Prevotella nonceiensis", "value": 0.12, "unit": "µg/mL"},
      {"measurement": "MIC", "setting": "Prevotella spp.; Prevotella, KUB No. 6604 Prevotella nonceiensis", "value": 0.25, "unit": "µg/mL"},
      {"measurement": "MIC50", "setting": "Prevotella spp.; Prevotella, n=54, combination: Compound A at 4 ug/mL, read-out: MIC50", "value": 0.06, "unit": "µg/mL"},
      {"measurement": "MIC90", "setting": "Prevotella spp.; Prevotella, n=54, combination: Compound A at 4 ug/mL, read-out: MIC90", "value": 0.12, "unit": "µg/mL"},
      {"measurement": "MIC", "setting": "Prevotella spp.; po, KUB No. 6566 Prevotella oralis", "value": "≤ 0.03", "unit": "µg/mL"},
      {"measurement": "MIC", "setting": "Porphyromonas spp.; KUB No. 6663 Porphyromonas gingivalis", "value": "≤ 0.03", "unit": "µg/mL"},
      {"measurement": "MIC", "setting": "Porphyromonas spp.; KUB No. 6666 Porphyromonas gingivalis", "value": "≤ 0.03", "unit": "µg/mL"},
      {"measurement": "MIC", "setting": "Porphyromonas spp.; KUB No. 6667 Porphyromonas gingivalis", "value": "≤ 0.03", "unit": "µg/mL"},
      {"measurement": "MIC", "setting": "Porphyromonas spp.; KUB No. 6668 Porphyromonas gingivalis", "value": "≤ 0.03", "unit": "µg/mL"},
      {"measurement": "MIC", "setting": "Porphyromonas spp.; KUB No. 6669 Porphyromonas gingivalis", "value": "≤ 0.03", "unit": "µg/mL"}
    ]}
  ]
}
